Tested on: Twenty different strains of S. aureus (10 MRSA and 10 MSSA strains)
Test: BOCILLIN-FL binding to a panel of MRSA and MSSA strains
Details: signal Ex490_Em510 normalized to tryptophan Ex285_Em350; 50 μM BOCILLIN-FL (0.1 ml) + 0.9 ml strain, 30 minutes at 37° C. (FIG. 4)
Procedure: Twenty different strains of S. aureus (10 MRSA and 10 MSSA strains, confirmed with cefoxitin discs and Vitek-2) were propagated. A loopful of growth (1 μL) was removed from 24-hour plates and suspended in BacT/ALERT SA culture media (8 ml in a glass screw-capped tube). The tubes were vortexed well and incubated at 36° C. for 6 hours. The OD of each suspension was measured at 660 nm and adjusted to approximately the same density (0.50-0.75 OD; sample #12166 was only 0.28). 50 μM BOCILLIN™-FL (0.1 ml) was placed into each of 20 labeled microfuge tubes. A sample of each strain (0.9 ml) was added to each tube, mixed, and incubated at 37° C. for 30 minutes. The reaction mixture was then removed and added to a second set of tubes containing 0.2 ml of an oil blend (1.000 part type DF immersion oil plus 0.875 part Drakeol 5 mineral oil). The tubes were centrifuged for 2 minutes at 10,000 rpm in an A-8-11 rotor (Eppendorf 5417R). The supernatant and most of the oil was aspirated with a vacuum device. The remaining oil was removed using a Gilson P200 tip and the pellet was resuspended in 100 μl PBS. The cells were transferred to an acrylic cuvette containing 3 ml PBS and read in the FluoroLog 3 system using the FluoroScan “Bocillin” points listed in Table 3. Additionally, Vitek AST cards were run on each of the 20 isolates (from the same 24 hour plates).

BOCILLIN-FL bound by the five benzyl-penicillin sensitive strains versus the fifteen benzyl-penicillin resistant strains: over twice the amount
Structure (SMILES): Cc1cc(C)n2c1C=C1C=CC(CCC(=O)Nc3ccc(OCC(=O)N[C@@H]4C(=O)N5[C@@H]4SC(C)(C)[C@@H]5C(=O)[O-])cc3)=[N+]1[B-]2(F)F.[Na+] [BOCILLIN™-FL]

Reference: US10988792B2, “Methods for antimicrobial resistance determination” (bioMerieux, Inc., priority 2009, dated 2021)
